Source: PubChem BioAssay (NCI)
“And” between values parts separate entries of the source, which are not always exact repeats. Identical values can stand only once.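 Briefly, cells in 96-well plates were exposed to five compound concentrations for 48 h, and endpoints were estimated by linear interpolation. At the GI50, growth is halved. At the TGI there is no net growth.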

What was measured:
Assay in all cases: NCI anticancer screen, dose series, 48 h
M19-MEL melanoma = tested on: M19-MEL melanoma
IGROV1 ovarian = tested on: IGROV1 ovarian
M14 melanoma = tested on: M14 melanoma
UACC-257 melanoma = tested on: UACC-257 melanoma
SF-539 CNS = tested on: SF-539 CNS
SNB-19 CNS = tested on: SNB-19 CNS
HOP-92 NSCLC = tested on: HOP-92 NSCLC
HOP-18 NSCLC = tested on: HOP-18 NSCLC
T-47D breast = tested on: T-47D breast
BT-549 breast = tested on: BT-549 breast

SMILES | TGI (M19-MEL melanoma) | TGI (IGROV1 ovarian) | TGI (M14 melanoma) | TGI (UACC-257 melanoma) | TGI (SF-539 CNS) | TGI (SNB-19 CNS) | TGI (HOP-92 NSCLC) | TGI (HOP-18 NSCLC) | GI50 (T-47D breast) | TGI (T-47D breast) | GI50 (IGROV1 ovarian) | GI50 (M14 melanoma) | GI50 (UACC-257 melanoma) | GI50 (SF-539 CNS) | GI50 (BT-549 breast) | TGI (BT-549 breast) | GI50 (SNB-19 CNS) | GI50 (HOP-92 NSCLC)
CC1(C)CC23C(=O)N(c4ccccc4)C(=Nc4ccccc4)NC2=CC(C#N)=C(C#N)C3O1 (stereo not given) | > 100 µM | > 100 µM | > 100 µM | > 100 µM | > 100 µM | > 100 µM | 52.2 µM |  |  |  |  |  |  |  |  |  |  | 
Nn1c(CCCl)nc2c(Br)cc(Br)cc2c1=O | > 82 µM | 60.3 µM | > 70 µM | > 100 µM | > 91.4 µM | > 100 µM | > 90.8 µM | > 100 µM |  |  |  |  |  |  |  |  |  | 
CN1CCN(C(=O)c2ccc(NC(=O)Nc3ccc(N(C)c4ccnc(Nc5ccc(CS(C)(=O)=O)cc5)n4)cc3)cc2)CC1 |  | > 25 µM | > 25 µM | > 25 µM | > 25 µM | > 25 µM | > 25 µM |  | 4.68 µM | 19.7 µM | > 16.4 µM | > 23.2 µM | > 25 µM | 11.2 µM | 9.05 µM | > 25 µM | 12.7 µM | > 25 µM
O=C1C=C(Nc2ccccc2)c2ncccc2C1=O |  | 2.58 µM | 1.17 µM | 2.66 µM | 1.21 µM | 1.43 µM | 2.97 µM |  | 1.27 µM | 3.58 µM | 0.904 µM | 0.352 µM | 1.29 µM | 0.356 µM | 1.28 µM | 2.64 µM | 0.411 µM | 1.49 µM
CCc1ccc(C2=C/C(=C/c3ccc(Cl)cc3)C(=O)N2CCc2ccc(S(N)(=O)=O)cc2)cc1 |  | 12.7 µM | 5.26 µM | 15.3 µM | 4.12 µM | 13.7 µM | 4.8 µM |  | 3.09 µM | 11.9 µM | 3.26 µM | 2.08 µM | 3.79 µM | 2.11 µM | 1.79 µM | 3.42 µM | 2.98 µM | 1.67 µM
C/C(CC(=O)CCCC(=O)Nc1ccc(Cl)cc1Cl)=N/NC(=O)CC#N | > 100 µM | > 100 µM | > 100 µM | > 100 µM | > 100 µM | > 100 µM |  | > 100 µM |  |  |  |  |  |  |  |  |  | 
CS(=O)(=O)c1ccc(N/N=C/c2c(-c3ccc(S(C)(=O)=O)cc3)[nH]c3ccc(F)cc23)cc1 |  | > 50 µM | > 50 µM | 20.2 µM | 2.11 µM | > 50 µM | > 50 µM |  | 1.41 µM | > 50 µM | 2.78 µM | 2.16 µM | 1.8 µM | 0.676 µM | 1.44 µM | > 50 µM | 2.36 µM | 2.18 µM
CCOC(=O)/C(=C/c1ccc(OC)c(OC)c1)C(=O)c1ccccc1 | 44.1 µM | 51.4 µM | 28.9 µM | 33.2 µM |  | 30.1 µM |  |  |  |  |  |  |  |  |  |  |  | 
c1cncc(C2c3[nH]c4ccccc4c3CCN2CCCN2CCCCC2)c1 (stereo not given) | > 100 µM | > 100 µM | 41.1 µM | > 100 µM | > 100 µM | > 100 µM | > 100 µM |  |  |  |  |  |  |  |  |  |  | 
COc1cc2c(c(OC)c1OC)-c1ccc([O-])c(=O)cc1[C@@H](NC(C)=O)CC2.COc1cc2c(c(OC)c1OC)-c1ccc([O-])c(=O)cc1[C@@H](NC(C)=O)CC2.[Cu+2] |  | 47.1 µM | > 100 µM | > 100 µM | 4.53 µM | > 100 µM | > 100 µM |  | 7.95 µM | > 100 µM | 5.59 µM | 2.79 µM | 12.5 µM | 1.88 µM | 2.56 µM | > 100 µM | 14.7 µM | 17.5 µM
CNC(=O)c1ccc(Nc2ncc(C(F)(F)F)c(NCc3nccnc3N(C)S(C)(=O)=O)n2)cc1 |  | > 10 µM and 12 µM and 13.1 µM | > 10 µM and 11.6 µM and 19 µM | > 10 µM and 11.2 µM and 15.5 µM | 4.76 µM and 5.11 µM and 4.9 µM | > 10 µM and 13.3 µM and 14.7 µM | 2.37 µM and 6.54 µM and 6.4 µM |  | 3.47 µM and 3.46 µM and 2.9 µM | > 10 µM and 12.5 µM and 10.4 µM | 0.881 µM and 1.81 µM and 1.64 µM | 2 µM and 2.27 µM and 1.98 µM | 4.66 µM and 3.75 µM | 1.86 µM and 1.99 µM and 1.82 µM | 2.98 µM and 2.06 µM and 2.14 µM | > 10 µM and 7.41 µM and 9.73 µM | 3.21 µM and 3.17 µM and 3.31 µM | 
Cc1cc(NC(=O)c2ccc(NS(=O)(=O)CCO)cc2N2CCC3(CC2)CC3)nc(N2CCC(F)(F)CC2)n1 |  | 30.6 µM | 28.9 µM | 32 µM | 16 µM | 21.6 µM | 29.6 µM |  | 12.5 µM | 31.8 µM | 16 µM | 14.3 µM | 16.8 µM | 0.0776 µM | 0.486 µM | 17.9 µM | 2.03 µM | 14.5 µM
C=C(C)C1CC=C(C(=O)O)CC1 (stereo not given) | 2970 µM | 1480 µM | > 5000 µM | 3450 µM | 2510 µM | 4330 µM | 3930 µM |  |  |  |  |  |  |  |  |  |  | 
CCCCCCCCCCCCCOC(=O)c1c(C)[nH]c(/C=C2\N=C(c3ccc[nH]3)C=C2OC)c1C |  | 30.1 µM | 0.0461 µM | > 100 µM | > 26.9 µM | > 87.6 µM | 0.497 µM |  | 0.0583 µM | > 43.4 µM | 0.122 µM | 0.0178 µM | 0.588 µM | 0.182 µM | 0.237 µM | 36.7 µM | 5.37 µM | 0.0698 µM
O=S(=O)(NCCNc1cc(-c2cn(-c3ccccc3)nc2-c2cccc(O)c2)ccn1)c1ccc(C(F)(F)F)cc1 |  | 5.89 µM | 7.17 µM | 18.4 µM | 3.48 µM | 17.4 µM | 6.39 µM |  | 1.84 µM | 6.73 µM | 2.36 µM | 2.12 µM | 4.79 µM | 1.59 µM | 2.02 µM | 7.07 µM | 3.79 µM | 1.97 µM
COc1cc(C(=O)C/C(CCC(=O)Nc2ccccc2[N+](=O)[O-])=N\NC(=O)C(N)=O)ccc1O | > 100 µM | > 100 µM | > 100 µM | > 100 µM | > 100 µM | > 100 µM | > 100 µM | > 100 µM |  |  |  |  |  |  |  |  |  | 
CC[C@H](C)c1occ2c(O)c(C(=O)O)c(=O)cc-2c1C |  | 37.2 µM | > 100 µM | > 100 µM | 46.3 µM | > 100 µM | 49.6 µM |  |  | 56.4 µM |  |  |  |  |  | 64.6 µM |  | 
